What was measured:
Format in all cases: functional, cell-based
[1] = test system: TOV21G; test: Anti-proliferative activity against human TOV-21G cells assessed as cell viability incubated for 24 hrs by CCK-8 assay
[2] = Anti-proliferative activity against human OVMANA cells assessed as cell viability incubated for 24 hrs by CCK-8 assay
[3] = Anti-proliferative activity against human OVTOKO cells assessed as cell viability incubated for 24 hrs by CCK-8 assay

Question: Which IC50 [1] does the source give for `Cc1cn(CCN2CCN(c3ccccc3-c3cc(C#N)cc(C(=O)NCCCN4CCCC4)c3)CC2)c2ccccc12` here?
Answer: 1200 nM

Question: What about the IC50 [2] of the same compound?
Answer: 1170 nM

Question: And the IC50 [3]?
Answer: 950 nM

— ChEMBL document CHEMBL5712093, “The histone methyltransferase SMYD2 is a novel therapeutic target for the induction of apoptosis in ovarian clear cell carcinoma cells” (Oncol Lett, 2020)
